# According to BindingDB's records for doi:10.1016/j.bmc.2006.10.028 (Kirin Brewery, 2006):
# Test: Inhibition of MCP1-induced chemotaxis in U937 cells overexpressing CCR2
row,Structure (SMILES),IC50 [µM]
1,Nc1cccc(CN2CC[C@@H](Nc3cccc4cnccc34)C2)c1 [(3R)-N-[1-(3-aminobenzyl)-3-pyrrolidyl]-N-(5-isoquinolyl)amine],1
2,Nc1cccc(CN2CC[C@H](Nc3cccc4cnccc34)C2)c1 [(3S)-N-[1-(3-aminobenzyl)-3-pyrrolidyl]-N-(5-isoquinolyl)amine],30
3,"Fc1cccc(F)c1CN1CCC(Nc2cccc3cnccc23)C1 (stereo unspecified) [N-(1-(2,6-difluorobenzyl)pyrrolidin-3-yl)isoquinolin-5-amine]",10
4,Nc1cccc(CN2CCC(Nc3cccc4cnccc34)C2)c1 (stereo unspecified) [N-(1-(3-aminobenzyl)pyrrolidin-3-yl)isoquinolin-5-amine],20
5,Clc1cccc(CN2CCC(Nc3cccc4cnccc34)C2)c1 (stereo unspecified) [N-(1-(3-chlorobenzyl)pyrrolidin-3-yl)isoquinolin-5-amine],14
6,Nc1ccc(CN2CCC(Nc3cccc4cnccc34)C2)cc1 (stereo unspecified) [N-(1-(4-aminobenzyl)pyrrolidin-3-yl)isoquinolin-5-amine],15
7,Clc1ccc(CN2CCCC(Nc3cccc4cnccc34)C2)cc1 (stereo unspecified) [N-(1-(4-chlorobenzyl)piperidin-3-yl)isoquinolin-5-amine],23
8,Clc1ccc(CN2CCC(Nc3cccc4cnccc34)C2)cc1 (stereo unspecified) [N-(1-(4-chlorobenzyl)pyrrolidin-3-yl)isoquinolin-5-amine],11
9,Nc1ccccc1CN1CCC(Nc2cccc3cnccc23)C1 (stereo unspecified) [N-[1-(2-aminobenzyl)-3-pyrrolidyl]-N-(5-isoquinolyl)amine],14
10,Clc1ccccc1CN1CCC(Nc2cccc3cnccc23)C1 (stereo unspecified) [N-[1-(2-chlorobenzyl)-3-pyrrolidyl]-N-(5-isoquinolyl)amine],17
11,Fc1ccc(CN2CCC(Nc3cccc4cnccc34)C2)cc1 (stereo unspecified) [N-[1-(4-fluorobenzyl)-3-pyrrolidyl]-N-(5-isoquinolyl)amine],22
